Results from US9394297B2, “Amides as pim inhibitors” (AMGEN INC., priority 2012, dated 2016).
Read-outs that look alike come from different tables or passages of the source.

Key:
Pim-1 = Pim-1 (Homo sapiens (Human), UniProt P11309); experiment: Pim-Mn enzyme assay (HTRF, 384-well), Pim-1; type: biochemical; conditions: read-out: Pim-1-Mn IC50 IP
Pim-2 = Pim-2 (Homo sapiens (Human), UniProt Q9P1W9); experiment: Pim-Mn enzyme assay (HTRF, 384-well), Pim-2; type: biochemical; conditions: read-out: Pim-2-Mn IC50 IP
Sequence of Pim-2 (Q9P1W9 whole entry): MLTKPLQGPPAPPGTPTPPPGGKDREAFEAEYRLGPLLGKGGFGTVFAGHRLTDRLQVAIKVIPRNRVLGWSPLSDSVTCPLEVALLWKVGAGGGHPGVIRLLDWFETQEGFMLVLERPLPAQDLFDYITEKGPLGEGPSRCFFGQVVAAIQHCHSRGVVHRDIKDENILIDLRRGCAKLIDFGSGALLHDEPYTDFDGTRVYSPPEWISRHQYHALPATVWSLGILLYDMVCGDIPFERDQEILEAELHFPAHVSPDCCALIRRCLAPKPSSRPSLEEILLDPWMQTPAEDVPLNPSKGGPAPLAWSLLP

KMS-12-BM cell lines = experiment: KMS12 #2 flow cytometry assay (phospho-BAD Ser112); type: cell-based; conditions: Homo sapiens, 110 min; KMS-12-BM cells, pBAD Ser112 by flow cytometry, 110 min with compound; read-out: KMS-12-Flow IC50 IP
[1] = Pim-1 enzyme 5 pM, ATP 1.5 μM, BAD (S112) 0.5 μM, HTRF, 22-point curve
[2] = Pim-2 enzyme 0.5 pM, ATP 1.5 μM, BAD (S112) 0.5 μM, HTRF, 22-point curve

Sequence of Pim-1 (P11309 whole entry): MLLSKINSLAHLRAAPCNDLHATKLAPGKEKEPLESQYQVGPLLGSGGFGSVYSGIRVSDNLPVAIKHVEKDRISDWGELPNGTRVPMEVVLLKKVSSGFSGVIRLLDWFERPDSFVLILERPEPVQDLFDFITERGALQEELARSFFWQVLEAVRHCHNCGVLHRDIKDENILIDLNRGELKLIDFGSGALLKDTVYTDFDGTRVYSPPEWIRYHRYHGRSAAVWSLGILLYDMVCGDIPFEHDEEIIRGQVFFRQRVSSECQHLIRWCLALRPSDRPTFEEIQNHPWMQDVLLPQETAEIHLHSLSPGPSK

SMILES	IC50 (Pim-1; [1]) [nM]	IC50 (Pim-2; [2]) [nM]	IC50 (KMS-12-BM cell lines) [nM]	IC50 (Pim-1) [nM]	IC50 (Pim-2) [nM]
Cc1nc2cccc(-c3cc4c([nH]3)C3(CC3)NC4=O)c2nc1NCC(F)(F)F [Example 381, 2′-(2-methyl-3-((2,2,2-trifluoroethyl)amino)quinoxalin-5-yl)-1′H-spiro[cyclopropane-1,6′-pyrrolo[3,4-b]pyrrol]-4′(5′H)-one]	–	–	215	1.6	1.36
Cc1nc2cccc(-c3cc4c([nH]3)[C@H](CO)NC4=O)c2nc1NC1CC1 [Example 367, (R)-2-(3-(cyclopropylamino)-2-methylquinoxalin-5-yl)-6-(hydroxymethyl)-5,6-dihydropyrrolo[3,4-b]pyrrol-4(1H)-one]	3.81	3.68	429	–	–
Cc1nc2cccc(-c3cc4c(=O)[nH]nc(C)c4[nH]3)c2nc1NC(C)(C)C [Example 416, 2-(3-(tert-butylamino)-2-methylquinoxalin-5-yl)-7-methyl-1H-pyrrolo[2,3-d]pyridazin-4(5H)-one]	–	–	2950	7.63	15.8
CCOc1cnc2cccc(-c3cc4c([nH]3)CCNC4=O)c2n1 [Example 337, 2-(3-ethoxy-5-quinoxalinyl)-1,5,6,7-tetrahydro-4H-pyrrolo[3,2-c]pyridin-4-one]	71.9	54.6	6920	–	–
CN(c1ncc2cccc(-c3cc4c([nH]3)CCNC4=O)c2n1)C(C)(C)C [Example 377, 2-(2-(tert-butyl(methyl)amino)quinazolin-8-yl)-6,7-dihydro-1H-pyrrolo[3,2-c]pyridin-4(5H)-one]	2.43	3.32	1630	–	–
Cc1cccnc1-c1nc2c(-c3cc4c([nH]3)CCNC4=O)cccc2nc1C [Example 430, 2-(2-Methyl-3-(3-methylpyridin-2-yl)quinoxalin-5-yl)-6,7-dihydro-1H-pyrrolo[3,2-c]pyridin-4(5H)-one]	200	257	24800	–	–
Cc1nc2cccc(-c3cc(C(N)=O)c(C4CC4)[nH]3)c2nc1NC(C)(C)C [Example 418, 5-(3-(tert-butylamino)-2-methylquinoxalin-5-yl)-2-cyclopropyl-1H-pyrrole-3-carboxamide]	3.52	7.79	3150	–	–
Cc1nc2cccc(-c3cc4c([nH]3)[C@@H](C)NC4=O)c2nc1O[C@H](C)C(F)(F)F [Example 453, (6R)-6-methyl-2-(2-methyl-3-((1R)-2,2,2-trifluoro-1-methylethoxy)-5-quinoxalinyl)-5,6-dihydropyrrolo[3,4-b]pyrrol-4(1H)-one]	37.5	258	> 40000	–	–
Cc1nccn1-c1cnc2cccc(-c3cc4c([nH]3)CCNC4=O)c2n1 [Example 320]	176	272	> 40000	–	–
Cc1nc2ccc(F)c(-c3cc4c([nH]3)CCNC4=O)c2nc1NC1(C)CCC1 [Example 376, 2-(6-fluoro-2-methyl-3-((1-methylcyclobutyl)amino)quinoxalin-5-yl)-6,7-dihydro-1H-pyrrolo[3,2-c]pyridin-4(5H)-one]	0.191	0.136	37.6	–	–
Cc1nc2ccc(F)c(-c3cc4c([nH]3)[C@@H](C)NC4=O)c2nc1NC1(C)CC1 [Example 379, (R)-2-(6-fluoro-2-methyl-3-((1-methylcyclopropyl)amino)quinoxalin-5-yl)-6-methyl-5,6-dihydropyrrolo[3,4-b]pyrrol-4(1H)-one]	0.0376	0.0484	11.3	–	–
Cc1nc2cccc(-c3cc4c(n3C(=O)OC(C)(C)C)CCNC4=O)c2nc1NC(C)(C)C [Example 290, tert-butyl 2-(3-(tert-butylamino)-2-methylquinoxalin-5-yl)-4-oxo-4,5,6,7-tetrahydro-1H-pyrrolo[3,2-c]pyridine-1-carboxylate]	39.7	35.8	4190	–	–
Cc1nc2cccc(-c3cc4n(n3)CCNC4=O)c2nc1NC(C)(C)C [Example 471, 2-(3-(tert-butylamino)-2-methylquinoxalin-5-yl)-6,7-dihydropyrazolo[1,5-a]pyrazin-4(5H)-one]	164	–	15500	–	593
Cc1nc2cccc(-c3cc4c([nH]3)[C@@H](C)NC4=O)c2nc1NC(C)(C)CO [Example 302, (6R)-2-(3-((2-hydroxy-1,1-dimethylethyl)amino)-2-methyl-5-quinoxalinyl)-6-methyl-5,6-dihydropyrrolo[3,4-b]pyrrol-4(1H)-one]	–	–	71.2	1.84	1.45
C[C@H]1NC(=O)c2cc(-c3cccc4c(=O)n(C)c(OC5(C)CC5)nc34)[nH]c21 [Example 460, 3-methyl-2-((1-methylcyclopropyl)oxy)-8-((6R)-6-methyl-4-oxo-1,4,5,6-tetrahydropyrrolo[3,4-b]pyrrol-2-yl)-4(3H)-quinazolinone]	0.554	1.01	94	–	–
COCCn1c(NC(C)(C)C)nc2c(-c3cc4c([nH]3)CNC4=O)cccc2c1=O [Example 458, 2-(tert-butylamino)-3-(2-methoxyethyl)-8-(4-oxo-1,4,5,6-tetrahydropyrrolo[3,4-b]pyrrol-2-yl)-4(3H)-quinazolinone]	0.325	0.218	54.6	–	–
Cc1nc2ccc(F)c(-c3cc4c([nH]3)CNC4=O)c2nc1NC(C)(C)C [Example 296, 2-(3-(tert-butylamino)-6-fluoro-2-methyl-5-quinoxalinyl)-5,6-dihydropyrrolo[3,4-b]pyrrol-4(1H)-one]	0.508	0.501	36.2	–	–

Further lines, with some results ahead:

IC50 (Pim-1; [1]) [nM]	IC50 (Pim-2; [2]) [nM]	IC50 (KMS-12-BM cell lines) [nM]	SMILES	IC50 (Pim-1) [nM]	IC50 (Pim-2) [nM]
1.61	2.54	657	Cc1nc2cccc(-c3cc4c([nH]3)CCNC4=S)c2nc1NC(C)(C)C [Example 292, 2-(3-(tert-butylamino)-2-methylquinoxalin-5-yl)-6,7-dihydro-1H-pyrrolo[3,2-c]pyridine-4(5H)-thione]	–	–
2.12	2.26	558	CC(C)(C)Nc1nc2c(-c3cc4c([nH]3)CCNC4=O)cccc2nc1CO [Example 306, 2-(3-(tert-butylamino)-2-(hydroxymethyl)quinoxalin-5-yl)-6,7-dihydro-1H-pyrrolo[3,2-c]pyridin-4(5H)-one]	–	–
2.33	2.78	1770	CC(C)(C)Nc1nc2c(-c3cc4c([nH]3)CCNC4=O)cccc2nc1F [Example 343, 2-(3-(tert-butylamino)-2-fluoro-5-quinoxalinyl)-1,5,6,7-tetrahydro-4H-pyrrolo[3,2-c]pyridin-4-one]	–	–
0.625	0.874	1000	Cc1nc2cccc(-c3[nH]c4c(c3Br)C(=O)NCC4)c2nc1NC(C)(C)C [Example 349, 3-bromo-2-(3-(tert-butylamino)-2-methyl-5-quinoxalinyl)-1,5,6,7-tetrahydro-4H-pyrrolo[3,2-c]pyridin-4-one]	–	–
1.25	1.91	341	Cc1nc2cccc(-c3cc4c([nH]3)CNC4=O)c2nc1NCC(F)(F)F [Example 301, 2-(2-methyl-3-((2,2,2-trifluoroethyl)amino)-5-quinoxalinyl)-5,6-dihydropyrrolo[3,4-b]pyrrol-4(1H)-one]	–	–
0.259	0.275	119	CCC(C)(C)Nc1nc2c(-c3cc4c([nH]3)CCNC4=O)c(F)ccc2nc1C [Example 375, 2-(6-fluoro-2-methyl-3-(tert-pentylamino)quinoxalin-5-yl)-6,7-dihydro-1H-pyrrolo[3,2-c]pyridin-4(5H)-one]	–	–
94.6	163	> 40000	Cc1nc2cccc(-c3cc4c([nH]3)CCNC4=O)c2nc1NC(C)c1cnccn1 (stereo not drawn) [Example 322, 2-(2-methyl-3-((1-(pyrazin-2-yl)ethyl)amino)quinoxalin-5-yl)-6,7-dihydro-1H-pyrrolo[3,2-c]pyridin-4(5H)-one]	–	–
9.48	8.58	6730	Cc1nc2cccc(-c3cc4c(n3C)CCNC4=O)c2nc1NC(C)(C)C [Example 314, 2-(3-(tert-butylamino)-2-methylquinoxalin-5-yl)-1-methyl-6,7-dihydro-1H-pyrrolo[3,2-c]pyridin-4(5H)-one]	–	–
9.94	14.7	1360	COCCOCC(C)(C)Nc1nc2c(-c3cc4c([nH]3)CCNC4=O)cccc2nc1C [Example 317, 2-(3-((2-(2-methoxyethoxy)-1,1-dimethylethyl)amino)-2-methyl-5-quinoxalinyl)-1,5,6,7-tetrahydro-4H-pyrrolo[3,2-c]pyridin-4-one]	–	–
0.7	1.3	> 40000	Cc1nc2cccc(-c3cc4c([nH]3)CCNC4=O)c2nc1N[C@H]1C[C@@H](NCCS(C)(=O)=O)C1 [Example 441, 2-(2-Methyl-3-((cis-3-((2-(methylsulfonyl)ethyl)amino)cyclobutyl)amino)quinoxalin-5-yl)-6,7-dihydro-1H-pyrrolo[3,2-c]pyridin-4(5H)-one]	–	–
30.8	33.7	13300	Cc1nc2ccnc(-c3cc4c([nH]3)CCNC4=O)c2nc1NC(C)(C)C [Example 368, 2-(3-(tert-butylamino)-2-methylpyrido[3,4-b]pyrazin-5-yl)-6,7-dihydro-1H-pyrrolo[3,2-c]pyridin-4(5H)-one]	–	–
28.1	20.4	11500	Cc1nc2cccc(-c3cc4c([nH]3)CCNC4=O)c2nc1NC(C)(C)CNCCS(C)(=O)=O [Example 342, 2-(3-((1,1-dimethyl-2-((2-(methylsulfonyl)ethyl)amino)ethyl)amino)-2-methyl-5-quinoxalinyl)-1,5,6,7-tetrahydro-4H-pyrrolo[3,2-c]pyridin-4-one]	–	–
